According to US7622462B2, “Benzazepine derivatives and uses thereof” (Roche Palo Alto LLC, priority 2006, dated 2009):
pKi: −log10 of the molar value.

Assays:
Assay type in all cases: binding
hSERT transporter = target: T1, hSERT transporter (Homo sapiens, UniProt P31645); test: Human serotonin transporter (hSERT) scintillation proximity assay, competition with [3H]-Citalopram; settings: membranes of HEK-293 cells expressing recombinant hSERT, Cheng-Prusoff
T1 construct: expressed in transfected cells; membrane preparation
Protocol: The screening assay of this example was used to determine the affinity of ligands at the hSERT transporter by competition with [^3H]-Citalopram.
Scintillation Proximity Assay (SPA) works by bringing radioligand within close proximity to the bead's scintillant to stimulate light emission. In this assay, the receptor-containing membranes were pre-coupled to the SPA beads and the binding of the appropriate radioligand to the transporter was measured. The light emission was proportional to the amount of bound radioligand. Unbound radioligand produced no signal as a result of distant proximity to scintillant (lack of energy transfer). […]
(§1) Cell membranes were prepared using a membrane preparation buffer of 50 mM TRIS (pH 7.4). […] After a second centrifugation, the pellet was re-homogenized and brought to a final volume determined during the assay. […]
The % inhibition was calculated for each compound tested [(Compound counts per minute (CPM) at maximum concentration-Non-Specific CPM)/Total CPM*100]. […]
(§2) [formula] where max=total binding, min=non specific binding, x=concentration (M) of the tested compound and n=Hill slope. The inhibition dissociation constant (Ki) of each compound was determined according to the method of Cheng-Prusoff and then converted into negative logarithm (pKi) of the Ki.

hNET transporter = target: T2, hNET transporter (Homo sapiens, UniProt P23975); test: Human norepinephrine transporter (hNET) scintillation proximity assay, competition with [3H]-Nisoxetine; settings: membranes of HEK-293 cells expressing recombinant hNET, Cheng-Prusoff
T2 construct: expressed in transfected cells; membrane preparation
Protocol: This assay was used to determine the affinity of ligands for the hNET transporter by competition with [^3H]-Nisoxetine. As in the hSERT assay of the above example, receptor-containing membranes were pre-coupled to the SPA beads and the binding of the appropriate radioligand to the transporter was measured. The light emission was proportional to the amount of bound radioligand, with unbound radioligand producing no signal.
HEK-293 cells (Tatsumi et al., Eur. J. Pharmacol. 1997, 30, 249-258) stably expressing recombinant hNET (Clone: HEK-hNET #2) were maintained with media (DMEM hi glucose with 10% FBS, 300 μg/ml G418 and 2 mM L-Glutamine) and incubated at 37° C. with 5% CO2. Cells were released from culture flasks using PBS for 1-2 minutes. […]
as §1
^3[H] […] The mixtures were allowed to stand at room temperature for one hour, and were then counted on a Packard TopCount LCS, a generic SPA counting protocol settings (Energy Range: Low, Efficiency Mode: Normal, Region A: 1.50-35.00, Region B: 1.50-256.00, Count Time (min.): 0.40, Background Subtract: none, Half-Life Correction: no, Quench Indicator: tSIS, Platemap blank subtraction: No, Cross talk reduction: Off). […]

[1] = target: T3, human dopamine transporter (hDAT) (Homo sapiens, UniProt Q01959); test: Human dopamine transporter scintillation proximity assay, competition with [3H]-Vanoxerine; settings: HEK-293 cells expressing recombinant hDAT; [3H]-Vanoxerine (GBR 12909); Cheng-Prusoff
T3 construct: expressed in transfected cells; whole cells plated on Cell-Tak coated 96 well plates
Protocol: This assay was used to determine the affinity of ligands for the dopamine transporter by competition with [^3H]-Vanoxerine.
HEK-293 cells (Tatsumi et al., Eur. J. Pharmacol. 1997, 30, 249-258) stably expressing recombinant hDAT were maintained with media (DMEM hi glucose with 10% FBS, 300 μg/ml G418 and 2 mM L-Glutamine) and incubated at 37° C. with 5% CO2. Cells were plated four hours prior to experiment by placing approximately 30,000 cells per well (in PBS) on white, opaque Cell-Tak coated 96 well plates. Extra buffer was apriated from the cell plates using an ELx405 plate washer.
^3[H] vanoxerine (GBR 12909) radioligand, specific activity approximately 59 Ci/mmol, stock concentration, 400 nM, and 50 mM Tris-HCl, 300 mM NaCl, (pH 7.4) buffers were used for Scintillation Proximity Assay IC50/Ki determination. […]
The % inhibition was calculated for each compound tested [(Compound CPM at maximum concentration-Non-Specific CPM)/Total CPM*100]. […]
as §2

T2 sequence (P23975 whole entry): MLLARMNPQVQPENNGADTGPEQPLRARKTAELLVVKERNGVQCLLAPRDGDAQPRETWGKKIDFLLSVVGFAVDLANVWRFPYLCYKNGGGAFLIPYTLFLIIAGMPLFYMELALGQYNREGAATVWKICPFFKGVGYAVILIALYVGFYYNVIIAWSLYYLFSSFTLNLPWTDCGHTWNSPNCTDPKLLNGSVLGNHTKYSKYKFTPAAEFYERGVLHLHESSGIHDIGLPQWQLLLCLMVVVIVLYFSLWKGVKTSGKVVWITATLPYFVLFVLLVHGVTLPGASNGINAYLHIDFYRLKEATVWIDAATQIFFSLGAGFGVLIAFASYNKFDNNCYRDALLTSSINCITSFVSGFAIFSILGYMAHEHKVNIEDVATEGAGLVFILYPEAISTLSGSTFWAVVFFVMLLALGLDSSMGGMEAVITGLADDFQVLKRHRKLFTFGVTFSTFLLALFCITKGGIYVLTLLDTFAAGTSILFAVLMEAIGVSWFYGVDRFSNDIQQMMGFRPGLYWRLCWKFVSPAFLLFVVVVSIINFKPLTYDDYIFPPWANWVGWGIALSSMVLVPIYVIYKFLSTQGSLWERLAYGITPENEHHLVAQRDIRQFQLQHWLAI
T3 sequence (Q01959 whole entry): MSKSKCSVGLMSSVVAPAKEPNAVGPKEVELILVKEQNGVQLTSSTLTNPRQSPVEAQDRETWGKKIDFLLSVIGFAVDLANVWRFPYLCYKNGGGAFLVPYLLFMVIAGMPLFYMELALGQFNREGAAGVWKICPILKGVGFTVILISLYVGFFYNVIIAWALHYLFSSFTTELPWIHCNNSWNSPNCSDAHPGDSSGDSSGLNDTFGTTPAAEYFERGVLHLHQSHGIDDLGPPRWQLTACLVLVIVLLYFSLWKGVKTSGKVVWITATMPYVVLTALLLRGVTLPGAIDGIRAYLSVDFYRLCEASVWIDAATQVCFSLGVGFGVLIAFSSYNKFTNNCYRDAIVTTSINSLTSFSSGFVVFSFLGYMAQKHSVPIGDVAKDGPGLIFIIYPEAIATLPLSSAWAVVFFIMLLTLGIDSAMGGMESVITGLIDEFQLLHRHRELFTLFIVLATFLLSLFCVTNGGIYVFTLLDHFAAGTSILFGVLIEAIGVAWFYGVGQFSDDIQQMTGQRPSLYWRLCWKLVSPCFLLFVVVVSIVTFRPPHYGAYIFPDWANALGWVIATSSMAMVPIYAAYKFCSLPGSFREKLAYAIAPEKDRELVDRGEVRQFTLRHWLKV
T1 sequence (P31645 whole entry): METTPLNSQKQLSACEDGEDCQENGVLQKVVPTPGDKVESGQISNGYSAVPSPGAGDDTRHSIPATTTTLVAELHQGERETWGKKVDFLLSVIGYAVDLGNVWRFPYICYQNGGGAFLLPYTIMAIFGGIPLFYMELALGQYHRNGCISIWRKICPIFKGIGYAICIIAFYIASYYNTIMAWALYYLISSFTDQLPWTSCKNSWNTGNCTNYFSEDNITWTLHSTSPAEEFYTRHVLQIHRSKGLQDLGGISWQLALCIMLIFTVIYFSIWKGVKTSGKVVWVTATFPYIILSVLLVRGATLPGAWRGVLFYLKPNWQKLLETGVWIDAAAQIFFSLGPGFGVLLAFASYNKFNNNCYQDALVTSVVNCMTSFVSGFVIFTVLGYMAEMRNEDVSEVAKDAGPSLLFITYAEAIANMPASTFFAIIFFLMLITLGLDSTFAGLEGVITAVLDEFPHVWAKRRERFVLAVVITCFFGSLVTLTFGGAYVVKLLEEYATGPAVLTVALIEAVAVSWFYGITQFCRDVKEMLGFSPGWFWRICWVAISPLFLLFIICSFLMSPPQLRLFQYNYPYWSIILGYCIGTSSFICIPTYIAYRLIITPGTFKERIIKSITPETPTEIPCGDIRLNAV

pKi (hSERT transporter): ~6.90
pKi (hNET transporter): ~8.00
pKi [1]: ~8.70
Structure (SMILES): c1ccc2c(c1)CNCCC2c1ccc2[nH]ccc2c1 (stereo not drawn) [5-(1H-Indol-5-yl)-2,3,4,5-tetrahydro-1H-benzo[c]azepine]
